Entries after “also recorded” stand apart in the source; their conditions may differ.
Experiments:
Haemophilus influenzae = assay: Susceptibility of planktonic and biofilm H. influenzae strains to kanamycin alone and in combination with HEJ14; assay type: cell-based
Text: FIG. 3A: transformation frequency of wild type (Rd) Haemophilus influenzae versus ΔRelA Rd; FIG. 3B: transformation frequency of Rd versus ΔRelA/ΔSpot Rd; FIG. 3C: planktonic treatments: no treatment (left); kanamycin treatment (middle); HEJ14+kanamycin treatment (right). Left=WT Rd; middle=ΔRelA Rd and right=ΔRelA/ΔSpot Rd. FIG. 3D: biofilm treatments: no treatment (left); kanamycin treatment (middle); HEJ14+kanamycin treatment (right). Left=WT Rd; middle=ΔRelA Rd and right=ΔRelA/ΔSpot Rd.
To study the effects of HEJ14, including the risk of resistance mutations arising, the present study constructed single gene knockouts of RelA, SpoT, and MsfI (a gene that provides for survival in phagolysosomes) as well as a double RelA/SpoT knockout in the Gram-negative bacteria Haemophilus influenzae using an overlap PCR mutagenesis strategy.
The present study then evaluated the susceptibility of both planktonic (FIG. 3C) and biofilm cells (FIG. 3D) of WT, ΔRelA and the ΔRelA/ΔSpot H. influenzae strains to kanamycin (kan) alone and in combination with HEJ14. In all cases there was a 2-3 log increase in killing by the combo treatment confirming our initial premise that RelA inhibition would potentiate standard antibiotics.

P. aeruginosa [1] = assay: Pyocyanin toxin production by P. aeruginosa cultures; assay type: cell-based; settings: P. aeruginosa culture, single agent
Text: FIG. 4 illustrates certain aspects of the effect of HEJ14 on pyocyanin toxin production by the Gram-negative bacteria P. aeruginosa, in accordance with some embodiments. […] The bar chart illustrates the effect of HEJ14 on pyocyanin by P. aeruginosa at various HEJ14 concentrations.
Unexpectedly, the present study discovered that some of the hit compounds, as single agents, inhibited pyocyanin toxin production (FIG. 4) in the Gram-negative pathogen P. aeruginosa at higher specific activities (nanomolar) than required for RelA inhibition. Thus, the present study pursued a bipartite strategy of developing the compounds to treat biofilms, and to “convert” pathogens to commensals.

P. aeruginosa [2] = assay: Wax worm model: larvae injected with supernatant of P. aeruginosa cultures grown with HEJ14; assay type: in vivo; settings: larvae injected with supernatant of cultures treated with HEJ14 during growth vs untreated culture supernatants
Protocol: (§1) FIG. 5A: HEJ14 reduced toxin production of P. aeruginosa. The label “DMSO 48 h” above the dish indicate that the larvae were injected with supernatant of P. aeruginosa culture grown with DMSO carrier only. […] Kaplan Meier Plot showing increased survival of wax worms receiving supernatant from HEJ14 treated P. aeruginosa culture. FIG. 5B: HEJ14 protected wax worm larvae from the lethality caused by P. aeruginosa infection. In FIG. 5B, larvae were injected with either live P. aeruginosa (10^5 CFU) and HEJ14, or the live bacteria and DMSO carrier only. Right dish: Larvae were injected with live P. aeruginosa (10^5 CFU) & 50 μM HEJ14. The Kaplan Meier Plot showing increased survival of wax worms receiving HEJ14 treated P. aeruginosa.
(§2) Similarly, HEJ14 protected the larvae for 48 hours when live P. aeruginosa were injected simultaneously with a single bolus of HEJ14 (FIG. 5B).

P. aeruginosa [3] = assay: Wax worm model: larvae injected with live P. aeruginosa and HEJ14; assay type: in vivo; settings: 48 hours post-injection; live P. aeruginosa (10^5 CFU) injected simultaneously with single bolus of 50 μM HEJ14
Protocol: as §1, §2

Staphylococcus aureus = assay: S. aureus in vitro growth kinetics (OD600); assay type: cell-based; settings: stationary phase; HEJ14 125-500 μM, 24 hours
Protocol: (§3) Cultures of a S. aureus expressing an agr-GFP reporter were incubated with vehicle (0 μM) or various concentrations of HEJ14 ([…], 250 μM, and 500 μM). The bacterial growth (OD600) and GFP signal intensity (RFU) were measured for a duration of 24 hours at 20-minute intervals. FIG. 6A: Bacterial growth (OD600).
The present study further discovered that the bacterial anti-virulence effects of HEJ14 works on the Gram-positive pathogens, as well. To determine if HEJ14 has an effect on the Gram-positive bacteria Staphylococcus aureus, the present study performed in vitro growth kinetics assays testing various HEJ14 concentrations and measuring OD600 over time.

agr = assay: S. aureus agr-GFP reporter expression; assay type: cell-based, Staphylococcus aureus; settings: stationary phase; HEJ14 125, 250, 500 μM
Protocol: as §3
FIG. 6B: agr expression as measured by GFP signal intensity (RFU) normalized to OD600.
Since the stringent response in S. aureus induces PSMα production and agr activity is essential for psm expression, the present study used an S. aureus agr reporter strain to elucidate the effect of RelA inhibition on agr expression.

S. aureus = assay: Hemolytic activity of S. aureus culture supernatants on sheep's blood agar; assay type: cell-based, Staphylococcus aureus; settings: S. aureus cultures incubated with HEJ14 (125 μM) for 24 hrs vs vehicle
Protocol: S. aureus broth cultures were incubated with vehicle or HEJ14 (125 μM) for 24 hrs. The supernatants were filter sterilized (0.2 μm) and 5 μL plated in serial dilutions on 5% sheep's blood agar, starting with V1 (vehicle treated plate) and R1 (HEJ14 treated plate).

[4] = system: methicillin-resistant S. aureus (MRSA) (strain USA300 LAC::lux); assay: Mouse model of S. aureus intradermal infection (MRSA USA300 LAC::lux); assay type: in vivo, mice; settings: single dose of 125 μM or 250 μM HEJ14 at time of infection, day 3, vs vehicle, dose-dependent
Protocol: The dorsal skin surfaces of anesthetized mice were shaved; a 100 μL volume of 3×10^7 CFU of methicillin-resistant S. aureus (MRSA) (strain USA300 LAC::lux) was injected intradermally with, from left to right, vehicle, 125 μM of HEJ14, or 250 μM of HEJ14. FIG. 8A: Digital photographs of dorsal lesions. FIG. 8B: Digital bioluminescent signals of S. aureus. FIG. 8C: images from FIG. 8A were analyzed using Image J to obtain total lesion areas. FIG. 8D Images from FIG. 8B were analyzed by Image J to determine bacterial burden based on photon count.
To investigate the efficacy of a RelA inhibitor against in vivo bacterial infections, the present study employed an established mouse model of S. aureus intradermal infection with the community-associated methicillin-resistant S. aureus infections (CA-MRSA) bioluminescent strain USA300 LAC::lux (Marchitto et al., Proc Natl Acad Sci USA 2019; 116:10917-26; Alphonse et al., Sci Transl Med 2021; 13.; Wang et al., Nat Med 2007; 13:1510-4.; Dong et al., Immunity 2022; 55:1645-62.e7).

Escherichia coli C = assay: E. coli C aggregation under stress conditions; assay type: cell-based; settings: high salt, low temperature and amino acid starvation
Text: Bottom panels: Micrographs of the aggregates (or the lack thereof in the case of HEJ14 treated sample).
E. coli C, when under certain stress conditions, aggregates together and forms highly robust biofilms from a planktonic culture. It was hypothesized that inhibition of RelA would limit aggregation of E. coli C.

## O=C(O)Cn1cc(C[C@H]2NC(=O)NC2=O)nn1 [HEJ14, (R)-2-(4-((2,5-dioxoimidazolidin-4-yl)methyl)-1H-1,2,3-triazol-1-yl)acetic acid]
Haemophilus influenzae; HEJ14 in combination with kanamycin vs kanamycin alone, planktonic and biofilm cells of WT, ΔRelA and ΔRelA/ΔSpot H. influenzae
  increase in killing by the combo treatment: 2-3 log
Haemophilus influenzae; even in ΔRelA strains
  planktonic and biofilm H. influenzae growth: able to inhibit planktonic and biofilm H. influenzae growth
P. aeruginosa [1]
  pyocyanin toxin production: decreased pyocyanin production
P. aeruginosa [2]
  P. aeruginosa virulence in the wax worm model: significantly reduced P. aeruginosa virulence
P. aeruginosa [3]
  larvae survived: 95%
Staphylococcus aureus
  bacterial growth (OD600): enhanced bacterial growth during the stationary phase
agr
  agr expression (GFP signal normalized to OD600): dose-dependent decrease in agr expression
S. aureus
  hemolytic effect of culture supernatants on blood agar plates: reduced hemolytic effect
[4]
  bioluminescence (in vivo bacterial burden): significantly decreased
  lesion size: significantly decreased
Escherichia coli C
  E. coli C aggregation: completely absent; also recorded: reduced the amount of E. coli C aggregation

Reference: patent US20250090502A1, “METHODS OF TREATING, AMELIORATING, AND/OR PREVENTING BACTERIAL INFECTION, OR METHODS OF REDUCING ADVERSE EFFECTS CAUSED BY BACTERIA” (Drexel University, priority 2023, published 2025)
